Measurements taken from publication PMC5681922, “Systemic Responses of Multidrug-Resistant Pseudomonas aeruginosa and Acinetobacter baumannii Following Exposure to the Antimicrobial Peptide Cathelicidin-BF Imply Multiple Intracellular Targets” (Frontiers in Cellular and Infection Microbiology, 2017).
Read-outs that look alike come from different tables or passages of the source. No end group written: not given here.

System: P. aeruginosa 1409
[1] = treated vs untreated, iTRAQ, cathelicidin-BF change not categorized as differentially expressed

KFFRKLKKSVKKRAKEFFKKPRVIGVSIPF [cathelicidin-BF]
Pa-Ca/Pa-C (iTRAQ abundance ratio Pa-Cathelicidin/Pa-Control of protein Q9HY45 (GN=PA3575)): 1.067
Pa-Ca/Pa-C (iTRAQ abundance ratio Pa-Cathelicidin/Pa-Control of protein Q9HY53 (GN=PA3564)): 0.9999
Pa-Ca/Pa-C (iTRAQ abundance ratio Pa-Cathelicidin/Pa-Control of protein Q9HYC5 (GN=PA3484)): 1.215
Pa-Ca/Pa-C (iTRAQ abundance ratio Pa-Cathelicidin/Pa-Control of protein Q9HYK2 (GN=PA3402)): 1.136
Pa-Ca/Pa-C (iTRAQ abundance ratio Pa-Cathelicidin/Pa-Control of protein Q9HYU6 (GN=PA3297)): 0.9414
Pa-Ca/Pa-C (iTRAQ abundance ratio Pa-Cathelicidin/Pa-Control of protein Q9HYV7 (GN=PA3286)): 0.9022
Pa-Ca/Pa-C (iTRAQ abundance ratio Pa-Cathelicidin/Pa-Control of protein Q9HYZ3 (GN=apeB)): 1.0565
Pa-Ca/Pa-C (iTRAQ abundance ratio Pa-Cathelicidin/Pa-Control of protein Q9HZD8 (GN=PA3070)): 0.9912
Pa-Ca/Pa-C (iTRAQ abundance ratio Pa-Cathelicidin/Pa-Control of protein Q9HZF4 (GN=PA3054)): 0.9528
Pa-Ca/Pa-C (iTRAQ abundance ratio Pa-Cathelicidin/Pa-Control of protein Q9HZG0 (GN=rlmL)): 0.9995
Pa-Ca/Pa-C (iTRAQ abundance ratio Pa-Cathelicidin/Pa-Control of protein Q9HZG4 (GN=PA3044)): 1.123
Pa-Ca/Pa-C (iTRAQ abundance ratio Pa-Cathelicidin/Pa-Control of protein Q9HZM6 (GN=ptpA)): 0.8326
Pa-Ca/Pa-C (iTRAQ abundance ratio Pa-Cathelicidin/Pa-Control of protein Q9HZN0 (GN=PA2974)): 1.056
Pa-Ca/Pa-C (iTRAQ abundance ratio Pa-Cathelicidin/Pa-Control of protein Q9HZY0 (GN=mttC)): 1.0109
Pa-Ca/Pa-C (iTRAQ abundance ratio Pa-Cathelicidin/Pa-Control of protein Q9I0F5 (GN=PA2683)): 1.0558
Pa-Ca/Pa-C (iTRAQ abundance ratio Pa-Cathelicidin/Pa-Control of protein Q9I0I2 (GN=PA2656)): 1.043
Pa-Ca/Pa-C (iTRAQ abundance ratio Pa-Cathelicidin/Pa-Control of protein Q9I0Q7 (GN=kynA)): 0.9342
Pa-Ca/Pa-C (iTRAQ abundance ratio Pa-Cathelicidin/Pa-Control of protein Q9I0R5 (GN=PA2571)): 0.9216
Pa-Ca/Pa-C (iTRAQ abundance ratio Pa-Cathelicidin/Pa-Control of protein Q9I0Z9 (GN=PA2483)): 0.8854
Pa-Ca/Pa-C (iTRAQ abundance ratio Pa-Cathelicidin/Pa-Control of protein Q9I1H9 (GN=PA2296)): 0.9095
Pa-Ca/Pa-C (iTRAQ abundance ratio Pa-Cathelicidin/Pa-Control of protein Q9I1I4 (GN=PA2291)): 1.111
Pa-Ca/Pa-C (iTRAQ abundance ratio Pa-Cathelicidin/Pa-Control of protein Q9I1M1 (GN=bkdA2)): 1.005
Pa-Ca/Pa-C (iTRAQ abundance ratio Pa-Cathelicidin/Pa-Control of protein Q9I2G3 (GN=PA1941)): 0.9926
Pa-Ca/Pa-C (iTRAQ abundance ratio Pa-Cathelicidin/Pa-Control of protein Q9I2R3 (GN=PA1832)): 0.9008
Pa-Ca/Pa-C (iTRAQ abundance ratio Pa-Cathelicidin/Pa-Control of protein Q9I2T1 (GN=gloB)): 0.964
Pa-Ca/Pa-C (iTRAQ abundance ratio Pa-Cathelicidin/Pa-Control of protein Q9I2Y1 (GN=pabB)): 0.998
Pa-Ca/Pa-C (iTRAQ abundance ratio Pa-Cathelicidin/Pa-Control of protein Q9I3F3 (GN=tusA)): 0.8155
Pa-Ca/Pa-C (iTRAQ abundance ratio Pa-Cathelicidin/Pa-Control of protein Q9I3J6 (GN=PA1517)): 1.049
Pa-Ca/Pa-C (iTRAQ abundance ratio Pa-Cathelicidin/Pa-Control of protein Q9I3L0 (GN=gcl)): 0.9901
Pa-Ca/Pa-C (iTRAQ abundance ratio Pa-Cathelicidin/Pa-Control of protein Q9I4B6 (GN=PA1222)): 0.8647
Pa-Ca/Pa-C (iTRAQ abundance ratio Pa-Cathelicidin/Pa-Control of protein Q9I4H9 (GN=PA1158)): 1.038
Pa-Ca/Pa-C (iTRAQ abundance ratio Pa-Cathelicidin/Pa-Control of protein Q9I4N6 (GN=fliS)): 1.132
Pa-Ca/Pa-C (iTRAQ abundance ratio Pa-Cathelicidin/Pa-Control of protein Q9I4N9 (GN=PA1090)): 1.038
Pa-Ca/Pa-C (iTRAQ abundance ratio Pa-Cathelicidin/Pa-Control of protein Q9I4R3 (GN=PA1061)): 0.9798
Pa-Ca/Pa-C (iTRAQ abundance ratio Pa-Cathelicidin/Pa-Control of protein Q9I5M1 (GN=migA)): 0.9698
Pa-Ca/Pa-C (iTRAQ abundance ratio Pa-Cathelicidin/Pa-Control of protein Q9I5U7 (GN=apaH)): 1.014
Pa-Ca/Pa-C (iTRAQ abundance ratio Pa-Cathelicidin/Pa-Control of protein Q9I5V3 (GN=cca)): 0.7612
Pa-Ca/Pa-C (iTRAQ abundance ratio Pa-Cathelicidin/Pa-Control of protein Q9I6B3 (GN=trmB)): 1.011
Pa-Ca/Pa-C (iTRAQ abundance ratio Pa-Cathelicidin/Pa-Control of protein Q9I7A7 (GN=PA0020)): 1.051
Pa-Ca/Pa-C (iTRAQ abundance ratio Pa-Cathelicidin/Pa-Control of protein Q9I022 (GN=PA2821)): 0.7721
Pa-Ca/Pa-C (iTRAQ abundance ratio Pa-Cathelicidin/Pa-Control of protein Q9I164 (GN=PA2417)): 1.295
Pa-Ca/Pa-C (iTRAQ abundance ratio Pa-Cathelicidin/Pa-Control of protein Q9I233 (GN=PA2082)): 0.8885
Pa-Ca/Pa-C (iTRAQ abundance ratio Pa-Cathelicidin/Pa-Control of protein Q9I300 (GN=PA1737)): 1.149
Pa-Ca/Pa-C (iTRAQ abundance ratio Pa-Cathelicidin/Pa-Control of protein Q9I342 (GN=mtnB)): 1.093
Pa-Ca/Pa-C (iTRAQ abundance ratio Pa-Cathelicidin/Pa-Control of protein Q9I468 (GN=cobC)): 0.7767
Pa-Ca/Pa-C (iTRAQ abundance ratio Pa-Cathelicidin/Pa-Control of protein Q9I538 (GN=PA0919)): 0.9631
Pa-Ca/Pa-C (iTRAQ abundance ratio Pa-Cathelicidin/Pa-Control of protein Q9I655 (GN=creB)): 0.9495
Pa-Ca/Pa-C (iTRAQ abundance ratio Pa-Cathelicidin/Pa-Control of protein Q9I656 (GN=PA0462)): 1.049
Pa-Ca/Pa-C (iTRAQ abundance ratio Pa-Cathelicidin/Pa-Control of protein Q9I673 (GN=PA0444)): 0.9127
Pa-Ca/Pa-C (iTRAQ abundance ratio Pa-Cathelicidin/Pa-Control of protein Q9I688 (GN=PA0429)): 1.007
Pa-Ca/Pa-C (iTRAQ abundance ratio Pa-Cathelicidin/Pa-Control of protein Q9I700 (GN=bauA)): 0.9294
Pa-Ca/Pa-C (iTRAQ abundance ratio Pa-Cathelicidin/Pa-Control of protein Q9X6V8 (GN=PA3998)): 1.122
Pa-Ca/Pa-C (iTRAQ abundance ratio Pa-Cathelicidin/Pa-Control of protein Q51426 (GN=ruvB)): 1.14
expression of protein Q9HTV3 (3-octaprenyl-4-hydroxybenzoate carboxy-lyase) [1]: downregulated
expression of protein Q9I298 (putative 3-methylglutaconyl-ConA hydratase) [1]: downregulated
expression of protein Q9I5V3 (multifunctional CCA protein) (treated vs untreated, iTRAQ, levofloxacin change not categorized as differentially expressed): downregulated
